Legend:
[1] = target: PRMT5•SAM (biotinylated PRMT5-MEP50) (Homo sapiens (Human), UniProt O14744); assay: SPR binding assay, SAM running buffer; conditions: 20 μM SAM running buffer
Description: (§1) SPR screening was performed in MTA running buffer (25 mM Bicine pH 7.6, 100 mM NaCl, 1 mM TCEP, 20 μM MTA, 0.05% Tween-20 and 2% DMSO). The biotinylated PRMT5-MEP50 surface was equilibrated with MTA running buffer for 12 hours prior to the start. […] Subsequently, compound titration was repeated in SAM-running buffer (25 mM Bicine pH 7.6, 100 mM NaCl, 1 mM TCEP, 20 μM SAM, 0.05% Tween-20, and 2% DMSO). […] After double referencing, the steady-state response was extracted for each fragment concentration and was fit to the Langmuir isotherm equation to determine the equilibrium dissociation constant (KD).

[2] = target: T1, PRMT5/MEP50 complex (Homo sapiens (Human), UniProt O14744); assay: PRMT5:MEP50 FlashPlate Assay; type: biochemical
T1 sequence (O14744 whole entry): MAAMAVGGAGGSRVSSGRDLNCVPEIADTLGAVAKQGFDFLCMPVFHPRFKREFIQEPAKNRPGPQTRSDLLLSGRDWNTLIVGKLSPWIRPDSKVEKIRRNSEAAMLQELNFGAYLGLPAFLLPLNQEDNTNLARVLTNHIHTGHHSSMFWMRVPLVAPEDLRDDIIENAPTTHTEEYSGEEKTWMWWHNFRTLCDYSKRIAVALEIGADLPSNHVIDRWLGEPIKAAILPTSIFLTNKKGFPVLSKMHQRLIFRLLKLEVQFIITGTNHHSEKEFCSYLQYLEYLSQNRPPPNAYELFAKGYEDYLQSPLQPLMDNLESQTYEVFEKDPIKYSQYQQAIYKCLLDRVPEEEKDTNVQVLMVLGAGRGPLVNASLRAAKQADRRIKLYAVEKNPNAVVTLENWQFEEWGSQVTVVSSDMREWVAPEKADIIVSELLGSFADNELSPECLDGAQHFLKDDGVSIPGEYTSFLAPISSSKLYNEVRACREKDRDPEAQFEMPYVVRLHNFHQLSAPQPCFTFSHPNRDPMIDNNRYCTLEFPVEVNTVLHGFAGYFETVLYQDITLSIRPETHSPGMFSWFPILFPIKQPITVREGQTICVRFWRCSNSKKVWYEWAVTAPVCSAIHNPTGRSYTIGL
T1 sequence (Q9BQA1 whole entry partner): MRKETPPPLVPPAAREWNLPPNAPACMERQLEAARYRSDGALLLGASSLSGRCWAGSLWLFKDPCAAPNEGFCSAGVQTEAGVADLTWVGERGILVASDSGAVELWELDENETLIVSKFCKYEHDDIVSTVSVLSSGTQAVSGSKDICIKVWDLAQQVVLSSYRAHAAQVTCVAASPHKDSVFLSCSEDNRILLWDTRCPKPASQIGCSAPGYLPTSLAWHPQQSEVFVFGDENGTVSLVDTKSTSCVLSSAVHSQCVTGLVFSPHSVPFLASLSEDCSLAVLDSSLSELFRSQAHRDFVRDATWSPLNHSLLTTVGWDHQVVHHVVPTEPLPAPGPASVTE
In short: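 3 nM human PRMT5/MEP50 pre-incubated 20 min at room temperature with compound and 40 nM biotinylated histone H4(1-15) peptide; reaction started with 1 μM ³H-SAM, run 20 min. Bound tritiated peptide counted by scintillation; IC50 from 10-point curves (top 50 μM) with and without MTA.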

[3] = target: recombinant human dual expressed Avi PRMT5/His-MEP50 protein (Homo sapiens (Human), UniProt O14744); assay: HTRF binding assay in presence of MTA; conditions: 30 μM MTA
recombinant human dual expressed Avi PRMT5/His-MEP50 protein, sequence (O14744 2-637): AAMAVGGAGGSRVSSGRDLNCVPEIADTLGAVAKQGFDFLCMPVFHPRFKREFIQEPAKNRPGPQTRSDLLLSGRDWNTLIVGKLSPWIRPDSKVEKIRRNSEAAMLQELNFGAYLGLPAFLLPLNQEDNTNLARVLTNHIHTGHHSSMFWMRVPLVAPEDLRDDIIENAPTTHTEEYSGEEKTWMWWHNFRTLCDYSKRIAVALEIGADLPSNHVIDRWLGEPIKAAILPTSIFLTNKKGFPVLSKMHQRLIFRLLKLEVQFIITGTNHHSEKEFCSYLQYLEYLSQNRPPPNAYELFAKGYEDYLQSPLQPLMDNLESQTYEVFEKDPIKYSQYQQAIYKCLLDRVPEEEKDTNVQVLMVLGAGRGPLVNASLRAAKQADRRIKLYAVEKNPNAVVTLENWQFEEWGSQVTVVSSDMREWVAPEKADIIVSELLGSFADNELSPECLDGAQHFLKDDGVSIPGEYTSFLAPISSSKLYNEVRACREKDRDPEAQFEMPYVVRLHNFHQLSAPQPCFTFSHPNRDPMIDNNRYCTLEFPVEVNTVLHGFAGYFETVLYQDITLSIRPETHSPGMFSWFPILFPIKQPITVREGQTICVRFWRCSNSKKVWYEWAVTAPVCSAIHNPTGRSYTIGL
recombinant human dual expressed Avi PRMT5/His-MEP50 protein, sequence (Q9BQA1 2-342 partner): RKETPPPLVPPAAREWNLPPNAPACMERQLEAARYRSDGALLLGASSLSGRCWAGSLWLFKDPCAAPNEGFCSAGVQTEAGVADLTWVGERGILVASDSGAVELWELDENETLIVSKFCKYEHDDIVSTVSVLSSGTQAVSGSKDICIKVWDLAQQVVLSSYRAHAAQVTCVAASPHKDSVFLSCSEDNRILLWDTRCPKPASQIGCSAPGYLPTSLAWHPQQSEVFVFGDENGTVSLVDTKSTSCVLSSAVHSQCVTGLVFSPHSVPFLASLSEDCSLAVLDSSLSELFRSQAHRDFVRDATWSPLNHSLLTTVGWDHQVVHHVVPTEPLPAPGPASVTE
In short: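 HTRF tracer-displacement binding using human Avi-PRMT5 (2-637)/His-MEP50 (2-342), baculovirus-expressed, with 30 μM MTA and 5 nM in-house tracer in 25 mM ADA pH 7.2, 1 mM TCEP, 50 mM NaCl, 0.002% Tween. Overnight at 2-8° C, then 0.5 nM anti-His-Tb 1 hr RT; 665/620 ratio ×10000.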

[4] = target: T1, PRMT5/MEP50 complex; assay: PRMT5:MEP50 HotSpot Assay; type: biochemical; conditions: read-out: IC50 + 2 μM MTA, full-length histone H2A, presence of 2 μM MTA
Description: The assay uses recombinant full-length histone H2A as the PRMT5 substrate. Enzymatic transfer of the tritiated methyl group from S-adenosyl-L-[methyl-3H]methionine to the histone H2A protein generated a radiolabeled histone […] in a scintillation counter to determine the activity of PRMT5 enzyme in the presence and absence of compound. […] Briefly, compounds of the present invention were solubilized in 100% DMSO at a highest concentration of 10 mM. […] Control samples lacking compound, PRMT5/MEP50 complex or various reaction components also were prepared and processed in parallel with compound test samples. SAH was used as a positive control for assay validation. To measure PRMT5 inhibitory activity. 1 nM PRMT5/MEP50 complex (Reaction Biology Corporation) was preincubated with test compound in assay buffer containing 5 μM full-length histone H2A for 20 min at room temperature. The enzymatic reaction was initiated by adding 1 μM tritiated S-adenosyl methionine (final concentration) and the reaction was allowed to proceed for 60 min. The reaction was stopped and transferred to filter paper for detection. The amount of tritiated H2A in each sample was determined using a scintillation counter.

[5] = target: PRMT5•MTA (biotinylated PRMT5-MEP50) (Homo sapiens (Human), UniProt O14744); assay: SPR binding assay, MTA running buffer; conditions: 20 μM MTA running buffer
PRMT5•MTA (biotinylated PRMT5-MEP50), sequence (O14744 whole entry): as the sequence (O14744 whole entry) above
PRMT5•MTA (biotinylated PRMT5-MEP50), sequence (Q9BQA1 whole entry partner): as the sequence (Q9BQA1 whole entry partner) above
Description: as §1

PRMT5•SAM (biotinylated PRMT5-MEP50), sequence (O14744 whole entry, the tested form may be a part): as the sequence (O14744 whole entry) above
PRMT5•SAM (biotinylated PRMT5-MEP50), sequence (Q9BQA1 whole entry partner, the tested form may be a part): as the sequence (Q9BQA1 whole entry partner) above

Cc1cc2[nH]c(CN3C(=O)c4ccccc4C3=O)cc2nc1N [Example 14-1, 2-((5-amino-6-methyl-1H-pyrrolo[3,2-b]pyridin-2-yl)methyl)isoindoline-1,3-dione]
Kd [1]: 6 nM | IC50 ([2]; histone H4 peptide, absence of MTA, read-out: IC50): 10100 nM | IC50 ([2]; read-out: IC50 + 2 μM MTA, histone H4 peptide, presence of 2 μM MTA): 12.1 nM | IC50 [3]: 7 nM | IC50 [4]: 626 nM | Kd [5]: 1 nM
